For two molecules, D10, D50 and D90 results are on record in patent US11219602B2 (VECTURA LIMITED, priority 2017, dated 2022).

Several values for one entry are separate records, joined by “and”; a condition that tells them apart may be missing. Equal values may be shown once.

This data set can be described thus: Particle size analysis (wet analysis), Malvern Mastersizer 3000. Type of data set: physicochemical. As to conditions: starting material before micronisation. The method, then:
The pump speed was set to 3000 rpm. […] The dispersed particles were added to the dispersion unit to reach an obscuration of 5-15%. […] Six replicates were performed per measurement.

The mark [1] stands for this setting: listed as unmicronised glycopyrrolate.

On to magnesium stearate, for which the D10 is 2.8 μm and 2.06 μm; the D50 was 8.8 μm and 6.57 μm; the D90 was 27.4 μm and 19.9 μm.

On to `C[N+]1(C)CCC(OC(=O)C(O)(c2ccccc2)C2CCCC2)C1` (stereo not drawn) [Unmicronised glycopyrrolate, glycopyrrolate], for which the D10 amounted to 2.89 μm, the D50 was 16.0 μm and the D90 amounted to 49.0 μm. Also, under setting [1], the D10 was found to be 1.09 μm, the D50 is recorded as 2.90 μm and the D90 worked out at 10.4 μm.
